Calls of active or inactive are those of the source. The rule behind the calls is not given here.
Key:
[1] = target: Bromodomain-containing protein 3 (Homo sapiens, UniProt Q15059); assay: Binding affinity to human partial length BRD3 bromodomain 1 (P24 to E144 residues) expressed in bacterial expression system by BROMOscan assay
[2] = target: T1, ATPase family AAA domain-containing protein 2 (Homo sapiens, UniProt Q6PL18); assay: Binding affinity to human partial length ATAD2A (Q981 to R1108 residues) expressed in bacterial expression system by BROMOscan assay
T1 sequence (Q6PL18 whole entry): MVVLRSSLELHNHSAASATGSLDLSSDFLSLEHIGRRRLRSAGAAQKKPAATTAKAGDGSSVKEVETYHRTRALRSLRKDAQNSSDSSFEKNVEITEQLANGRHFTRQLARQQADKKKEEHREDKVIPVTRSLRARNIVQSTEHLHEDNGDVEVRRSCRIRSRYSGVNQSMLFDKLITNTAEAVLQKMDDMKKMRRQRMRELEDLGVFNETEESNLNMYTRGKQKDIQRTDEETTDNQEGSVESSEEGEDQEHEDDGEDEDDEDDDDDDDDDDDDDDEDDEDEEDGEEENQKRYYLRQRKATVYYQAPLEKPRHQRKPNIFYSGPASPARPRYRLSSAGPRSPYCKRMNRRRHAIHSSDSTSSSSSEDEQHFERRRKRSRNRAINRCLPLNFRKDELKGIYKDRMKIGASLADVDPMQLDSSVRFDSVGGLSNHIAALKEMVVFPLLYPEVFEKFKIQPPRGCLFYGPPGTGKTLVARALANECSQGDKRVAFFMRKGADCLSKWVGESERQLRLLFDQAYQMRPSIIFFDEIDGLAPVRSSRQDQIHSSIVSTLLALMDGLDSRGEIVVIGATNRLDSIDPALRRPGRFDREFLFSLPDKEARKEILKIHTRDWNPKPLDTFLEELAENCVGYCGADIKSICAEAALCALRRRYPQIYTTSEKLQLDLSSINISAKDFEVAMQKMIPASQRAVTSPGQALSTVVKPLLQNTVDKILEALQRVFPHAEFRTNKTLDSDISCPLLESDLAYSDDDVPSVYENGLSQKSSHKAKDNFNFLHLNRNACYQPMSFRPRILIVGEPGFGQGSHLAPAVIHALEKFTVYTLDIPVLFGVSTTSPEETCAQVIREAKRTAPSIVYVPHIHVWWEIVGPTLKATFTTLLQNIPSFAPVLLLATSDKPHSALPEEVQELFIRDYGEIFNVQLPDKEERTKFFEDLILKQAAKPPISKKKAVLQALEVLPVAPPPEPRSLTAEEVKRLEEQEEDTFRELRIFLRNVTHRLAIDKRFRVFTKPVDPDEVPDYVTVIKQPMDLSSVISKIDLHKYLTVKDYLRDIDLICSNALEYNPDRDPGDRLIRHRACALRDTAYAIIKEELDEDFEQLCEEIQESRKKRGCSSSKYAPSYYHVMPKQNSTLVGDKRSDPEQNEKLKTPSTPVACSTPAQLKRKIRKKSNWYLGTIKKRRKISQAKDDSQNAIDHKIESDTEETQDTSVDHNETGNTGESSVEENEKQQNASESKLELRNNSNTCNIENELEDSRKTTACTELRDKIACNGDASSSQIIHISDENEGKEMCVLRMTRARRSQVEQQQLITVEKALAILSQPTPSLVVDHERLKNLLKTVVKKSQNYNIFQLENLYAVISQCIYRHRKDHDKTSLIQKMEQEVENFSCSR

[3] = target: Bromodomain testis-specific protein (Homo sapiens, UniProt Q58F21); assay: Binding affinity to full length BRDT BD2 in human HuT78 cell lysates incubated for 45 mins by liquid chromatography-mass spectrometry based chemoproteomic binding assay; assay type: subcellular
B cell [4] = assay: Downregulation of IL-17A secretion in human B cells cocultured with human PBMC at 0.37 to 10 uM preincubated for 1 hr followed by anti-IgM and TCR stimulation and measured after 84 hrs by ELISA; assay type: functional, cell-based; details: dose microM 0.37-10, time 1.0 hrs
[5] = Permeability of the compound in pH 7.4 phosphate buffer measured after 3 hrs by artificial membrane permeability assay based HPLC analysis; assay type: ADME; details: PAMPA, pH 7.4, read-out: permeability
B cell [6] = assay: Downregulation of IL-2 secretion in human B cells cocultured with human PBMC at 0.37 to 10 uM preincubated for 1 hr followed by anti-IgM and TCR stimulation and measured after 84 hrs by ELISA; assay type: functional, cell-based; details: dose microM 0.37-10, time 1.0 hrs
[7] = Intrinsic clearance in rat hepatocytes at 0.5 uM measured up to 60 mins by LC-MS/MS analysis; assay type: ADME, cell-based, Hepatocyte; details: 1 h
Blood = assay: Inhibition of LPS-induced IL6 production in human whole blood preincubated for 30 mins followed by LPS addition and measured after overnight incubation by mesoscale assay; assay type: functional, tissue-based
[8] = Intrinsic clearance in mouse hepatocytes at 0.5 uM by LC-MS/MS analysis; assay type: ADME, cell-based, Hepatocyte
Protein polybromo-1 = Protein polybromo-1 (Homo sapiens, UniProt Q86U86); assay: Binding affinity to human partial length PBRM1 bromodomain 5 (S645 to D766 residues) expressed in bacterial expression system by BROMOscan assay
[9] = Inhibition of LPS-induced MCP1 production in PBMC (unknown origin); assay type: functional, tissue-based
[10] = target: Transcription initiation factor TFIID subunit 1 (Homo sapiens, UniProt P21675); assay: Displacement of AlexaFluor 488-labelled BD-AF488 from TAF1 BD2 (unknown origin) incubated for 15 mins by TR-FRET assay
[11] = target: Transcription initiation factor TFIID subunit 1-like (Homo sapiens, UniProt Q8IZX4); assay: Binding affinity to human partial length TAF1L bromodomain 2 (Q1523 to D1654 residues) expressed in bacterial expression system by BROMOscan assay

Sequence of Bromodomain-containing protein 3 (Q15059 whole entry, the tested form may be a part): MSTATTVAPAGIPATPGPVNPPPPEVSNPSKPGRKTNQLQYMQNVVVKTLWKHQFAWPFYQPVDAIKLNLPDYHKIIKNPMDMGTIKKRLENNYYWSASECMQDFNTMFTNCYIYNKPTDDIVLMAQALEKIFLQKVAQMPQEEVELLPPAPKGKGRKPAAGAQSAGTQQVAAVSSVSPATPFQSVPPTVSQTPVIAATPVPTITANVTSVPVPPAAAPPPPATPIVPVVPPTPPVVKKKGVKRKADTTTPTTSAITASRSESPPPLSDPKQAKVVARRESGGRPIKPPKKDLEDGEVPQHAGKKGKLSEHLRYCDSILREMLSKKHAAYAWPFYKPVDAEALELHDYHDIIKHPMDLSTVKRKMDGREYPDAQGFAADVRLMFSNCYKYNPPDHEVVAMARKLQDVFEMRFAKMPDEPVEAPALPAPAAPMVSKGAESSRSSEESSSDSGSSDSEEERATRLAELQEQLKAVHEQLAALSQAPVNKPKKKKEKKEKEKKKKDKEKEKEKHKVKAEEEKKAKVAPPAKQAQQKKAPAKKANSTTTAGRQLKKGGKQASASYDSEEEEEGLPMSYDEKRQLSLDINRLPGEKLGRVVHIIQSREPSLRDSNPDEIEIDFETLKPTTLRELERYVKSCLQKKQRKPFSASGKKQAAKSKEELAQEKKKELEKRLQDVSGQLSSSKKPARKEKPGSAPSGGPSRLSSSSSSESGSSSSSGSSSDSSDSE
Sequence of Protein polybromo-1 (Q86U86 whole entry, the tested form may be a part): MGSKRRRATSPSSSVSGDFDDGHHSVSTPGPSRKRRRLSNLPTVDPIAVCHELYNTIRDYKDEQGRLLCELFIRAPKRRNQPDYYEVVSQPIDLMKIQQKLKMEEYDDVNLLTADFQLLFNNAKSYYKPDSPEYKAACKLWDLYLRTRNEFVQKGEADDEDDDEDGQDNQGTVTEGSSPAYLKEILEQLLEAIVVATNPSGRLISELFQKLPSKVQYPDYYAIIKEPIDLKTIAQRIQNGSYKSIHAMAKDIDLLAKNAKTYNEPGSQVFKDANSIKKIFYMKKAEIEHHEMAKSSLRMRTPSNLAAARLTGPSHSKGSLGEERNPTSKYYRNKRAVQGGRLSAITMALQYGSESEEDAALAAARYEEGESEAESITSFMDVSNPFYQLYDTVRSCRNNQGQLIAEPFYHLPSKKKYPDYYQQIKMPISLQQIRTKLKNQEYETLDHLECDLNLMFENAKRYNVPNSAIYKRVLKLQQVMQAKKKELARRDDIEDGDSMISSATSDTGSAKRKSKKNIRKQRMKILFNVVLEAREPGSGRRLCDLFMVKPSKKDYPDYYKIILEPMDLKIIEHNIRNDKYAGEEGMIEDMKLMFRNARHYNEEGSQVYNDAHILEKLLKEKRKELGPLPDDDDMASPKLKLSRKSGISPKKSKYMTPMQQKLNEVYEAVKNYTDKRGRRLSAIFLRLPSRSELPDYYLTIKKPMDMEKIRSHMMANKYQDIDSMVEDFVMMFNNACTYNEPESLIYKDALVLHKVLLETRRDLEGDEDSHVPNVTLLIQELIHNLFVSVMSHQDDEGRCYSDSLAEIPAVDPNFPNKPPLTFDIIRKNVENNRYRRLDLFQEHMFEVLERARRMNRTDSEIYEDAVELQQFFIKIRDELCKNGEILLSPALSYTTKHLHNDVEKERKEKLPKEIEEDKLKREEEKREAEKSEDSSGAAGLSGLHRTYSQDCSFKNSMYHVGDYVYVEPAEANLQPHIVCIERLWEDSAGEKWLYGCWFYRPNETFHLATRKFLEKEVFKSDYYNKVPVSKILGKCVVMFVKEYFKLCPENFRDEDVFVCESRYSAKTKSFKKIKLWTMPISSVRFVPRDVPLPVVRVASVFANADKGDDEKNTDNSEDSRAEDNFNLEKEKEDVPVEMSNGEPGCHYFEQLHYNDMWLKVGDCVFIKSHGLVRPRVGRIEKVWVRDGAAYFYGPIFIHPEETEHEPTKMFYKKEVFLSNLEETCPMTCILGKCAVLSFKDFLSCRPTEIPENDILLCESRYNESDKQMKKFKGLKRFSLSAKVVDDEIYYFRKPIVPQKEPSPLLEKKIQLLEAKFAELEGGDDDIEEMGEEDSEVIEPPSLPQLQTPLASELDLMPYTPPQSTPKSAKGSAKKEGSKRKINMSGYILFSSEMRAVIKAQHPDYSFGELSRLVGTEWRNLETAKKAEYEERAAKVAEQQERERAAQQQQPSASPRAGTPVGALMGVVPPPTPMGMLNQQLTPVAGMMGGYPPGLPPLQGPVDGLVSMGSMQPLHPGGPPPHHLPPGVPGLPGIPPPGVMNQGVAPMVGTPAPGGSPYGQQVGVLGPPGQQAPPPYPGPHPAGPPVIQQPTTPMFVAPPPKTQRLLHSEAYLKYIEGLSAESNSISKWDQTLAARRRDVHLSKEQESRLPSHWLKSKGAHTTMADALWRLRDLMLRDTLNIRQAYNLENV
Sequence of Transcription initiation factor TFIID subunit 1 (P21675 whole entry, the tested form may be a part): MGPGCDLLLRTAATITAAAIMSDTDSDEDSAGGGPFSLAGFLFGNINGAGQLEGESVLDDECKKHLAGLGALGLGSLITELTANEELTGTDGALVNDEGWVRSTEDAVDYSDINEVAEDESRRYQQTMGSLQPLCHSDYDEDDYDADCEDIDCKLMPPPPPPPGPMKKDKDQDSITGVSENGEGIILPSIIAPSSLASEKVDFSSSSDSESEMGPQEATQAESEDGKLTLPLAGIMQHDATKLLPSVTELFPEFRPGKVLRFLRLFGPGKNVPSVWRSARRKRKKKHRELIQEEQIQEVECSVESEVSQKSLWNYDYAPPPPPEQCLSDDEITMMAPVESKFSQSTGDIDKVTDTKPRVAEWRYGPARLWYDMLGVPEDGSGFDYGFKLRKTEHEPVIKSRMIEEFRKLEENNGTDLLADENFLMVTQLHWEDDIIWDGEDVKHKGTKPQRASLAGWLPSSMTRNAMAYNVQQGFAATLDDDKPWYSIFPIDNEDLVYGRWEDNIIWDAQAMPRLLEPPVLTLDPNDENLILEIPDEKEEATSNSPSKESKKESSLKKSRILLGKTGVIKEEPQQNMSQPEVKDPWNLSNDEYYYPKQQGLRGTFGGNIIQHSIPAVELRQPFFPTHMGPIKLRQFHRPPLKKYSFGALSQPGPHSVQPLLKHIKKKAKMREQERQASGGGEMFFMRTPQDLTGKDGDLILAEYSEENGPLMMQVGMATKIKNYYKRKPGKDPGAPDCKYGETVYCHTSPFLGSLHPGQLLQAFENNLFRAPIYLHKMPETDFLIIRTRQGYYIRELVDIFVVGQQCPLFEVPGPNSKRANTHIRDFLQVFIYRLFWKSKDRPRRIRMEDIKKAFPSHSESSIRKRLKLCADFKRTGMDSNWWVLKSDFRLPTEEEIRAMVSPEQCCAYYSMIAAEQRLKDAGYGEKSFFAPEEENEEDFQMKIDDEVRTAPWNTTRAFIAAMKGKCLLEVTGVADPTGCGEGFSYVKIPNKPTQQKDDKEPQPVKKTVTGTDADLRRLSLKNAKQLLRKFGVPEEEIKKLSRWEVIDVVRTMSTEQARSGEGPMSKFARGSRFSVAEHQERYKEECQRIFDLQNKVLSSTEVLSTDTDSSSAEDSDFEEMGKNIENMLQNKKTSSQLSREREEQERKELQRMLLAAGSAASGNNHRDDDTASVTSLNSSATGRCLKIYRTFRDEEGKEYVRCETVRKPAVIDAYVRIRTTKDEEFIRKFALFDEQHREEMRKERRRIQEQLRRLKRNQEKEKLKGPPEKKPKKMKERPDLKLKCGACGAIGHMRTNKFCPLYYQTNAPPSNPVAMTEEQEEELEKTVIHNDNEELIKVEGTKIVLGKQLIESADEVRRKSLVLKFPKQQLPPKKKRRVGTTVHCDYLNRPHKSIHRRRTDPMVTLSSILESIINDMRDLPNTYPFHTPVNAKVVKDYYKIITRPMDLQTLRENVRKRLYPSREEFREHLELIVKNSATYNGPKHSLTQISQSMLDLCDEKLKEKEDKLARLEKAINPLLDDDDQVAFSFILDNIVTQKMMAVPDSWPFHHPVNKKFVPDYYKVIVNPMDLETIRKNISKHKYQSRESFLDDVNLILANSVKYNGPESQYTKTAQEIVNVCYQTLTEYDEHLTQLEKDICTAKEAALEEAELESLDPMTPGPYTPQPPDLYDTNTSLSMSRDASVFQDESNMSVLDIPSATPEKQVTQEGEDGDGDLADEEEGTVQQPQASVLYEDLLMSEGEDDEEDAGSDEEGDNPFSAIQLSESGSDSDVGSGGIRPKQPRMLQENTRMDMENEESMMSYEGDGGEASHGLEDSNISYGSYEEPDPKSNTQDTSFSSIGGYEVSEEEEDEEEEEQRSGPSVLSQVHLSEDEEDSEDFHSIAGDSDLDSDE

Kd [1]: 0.0158 µM
Kd [2]: 15.8 µM
Kd [3]: > 31.6 µM
Papp at 3 h [5]: 19 ×10⁻⁶ cm/s
CLH [7]: 14.88 mL/min/g
IC50 (Blood): 3.55 µM
CLH [8]: 8.15 mL/min/g
Kd (Protein polybromo-1): 10 µM
IC50 [9]: 0.02 µM
IC50 [10]: 10 µM
Kd [11]: 0.398 µM
SMILES: Cc1cc2c(-c3ccco3)cnc(N[C@@H]3CCN(C)C[C@H]3C(=O)NC3CCCCC3)c2[nH]c1=O [GSK789]
Activity (B cell [4]): Active
Activity (B cell [6]): Active
